The numbers were not newly measured in patent publication US20110263659A1, “Analogs of 1-Methylnicotinamide” (Cortria Corporation, priority 2008, published 2011), which cites them from elsewhere.

The conditions of series [1]: human subjects; studies from Smolenski et al.
Series [2] has as its system prostacyclin (PGI2) release. Particulars: preclinical; PCT/IB06/004013, PCT/EP05/050057, US 11/715,660.
[3] abbreviates: di-hydro-MNA 1 mmol/kg s.c., HPLC.

With 1-Methylnicotinamide [1-MNA], the half life in series [1] is 2 to 3 h. In addition, in series [2], the “ability to stimulate the release of prostacyclin (PGI2)” value is “ability to stimulate the release of prostacyclin (PGI2)”.

`CN1C=CCC(C(N)=O)=C1` [di-hydro-MNA, 1,4-dihydro-1-methylnicotinamide]: the “increase of brain tissue levels of 1-MNA (factor)” value (di-hydro-MNA 1 mmol/kg s.c.) was “twenty”. For the same compound, under setting [3], the “increase in liver 1-MNA levels” value was 9 fold and the “increase in plasma 1-MNA levels” value is given as 4 fold. The “maximum 1-MNA levels in brain extracellular fluid” value (di-hydro-MNA 1-3 mmol/kg s.c.) is more than 10 µM.
